Patent US6737383B1, “Herbicidal oxadiazolidines” (priority 1999, dated 2004)

Key:
cocklebur = assay: Test B pre/postemergence cocklebur; format: in vivo, Xanthium strumarium
Method in brief: (§1)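 Herbicidal effect was estimated by eye on a ten-point control scale after plants spent twelve to sixteen days in a greenhouse following soil or foliar treatment. Foliar sprays targeted plants at one to four leaves; all doses were formulated in a non-phytotoxic solvent with surfactant.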

crabgrass = assay: Test B pre/postemergence crabgrass; format: in vivo, Digitaria sanguinalis
Method in brief: as §1

wheat = assay: Test B pre/postemergence wheat; format: in vivo, Triticum aestivum
Method in brief: as §1

wild oat = assay: Test B pre/postemergence wild oat; format: in vivo, Avena fatua
Method in brief: as §1

[1] = Postemergence, Rate 1000 g/ha, scale 0 to 10 (0 no effect, 10 complete control)
[2] = Preemergence, Rate 500 g/ha, scale of 0 to 10 where 0 is no effect and 10 is complete control
[3] = Rate 125 g/ha, Postemergence, scale of 0 to 10 where 0 is no effect and 10 is complete control
[4] = Rate 250 g/ha, Postemergence, scale of 0 to 10 where 0 is no effect and 10 is complete control
[5] = Rate 500 g/ha, Postemergence, scale 0 to 10, 0 no effect, 10 complete control
[6] = Rate 1000 g/ha, Preemergence, scale 0 to 10 (0 no effect, 10 complete control)
[7] = Preemergence, Rate 250 g/ha, scale of 0 to 10 where 0 is no effect and 10 is complete control
[8] = Rate 125 g/ha, Preemergence, scale of 0 to 10 where 0 is no effect and 10 is complete control
[9] = Preemergence, Rate 62 g/ha, scale of 0 to 10 where 0 is no effect and 10 is complete control
[10] = Rate 62 g/ha, Postemergence, scale 0 to 10 (0 no effect, 10 complete control)
[11] = Postemergence, Rate 31 g/ha, visual rating, scale 0 to 10 (0 no effect, 10 complete control)
[12] = Preemergence, Rate 31 g/ha, visual rating, scale 0 to 10 (0 no effect, 10 complete control)

C=CCn1c(=O)on(C(=O)N(c2ccc(F)cc2)C(C)C(=O)OCC)c1=O (stereo not drawn) [Compound 279]
4: Plant response rating, Crabgrass (crabgrass; [6])
1: Plant response rating, Crabgrass (crabgrass; [2]) | Wheat plant response rating (wheat; [1])
0: Cocklebur plant response rating (cocklebur; [1]) | Plant response rating, Cocklebur (cocklebur; [2]) | Cocklebur plant response rating (cocklebur; [3]) | Plant response rating, Cocklebur (cocklebur; [4]) | Cocklebur plant response rating (cocklebur; [5]) | Plant response rating, Cocklebur (cocklebur; [6]) | Crabgrass plant response rating (crabgrass; [7]) | Crabgrass plant response rating (crabgrass; [3]) | Crabgrass plant response rating (crabgrass; [8]) | Plant response rating, Crabgrass (crabgrass; [4]) | Crabgrass plant response rating (crabgrass; [5]) | Wheat plant response rating (wheat; [7]) | Plant response rating, Wheat (wheat; [2]) | Wheat plant response rating (wheat; [3]) | Wheat plant response rating (wheat; [8]) | Plant response rating, Wheat (wheat; [4]) | Wheat plant response rating (wheat; [5]) | Plant response rating, Wheat (wheat; [6]) | Wild oats plant response rating (wild oat; [1]) | Wild oats plant response rating (wild oat; [7]) | Plant response rating, Wild oats (wild oat; [2]) | Wild oats plant response rating (wild oat; [3]) | Plant response rating, Wild oats (wild oat; [4]) | Wild oats plant response rating (wild oat; [5]) | Plant response rating, Wild oats (wild oat; [6])

CC(C)N(C(=O)n1oc(=O)n(C2CCCCO2)c1=O)c1ccc(F)cc1 (stereo not drawn) [Compound 311]
0: Cocklebur plant response rating (cocklebur; [9]) | Cocklebur plant response rating (0 to 10 scale) (cocklebur; Preemergence, Rate 125 g/ha) | Cocklebur plant response rating (cocklebur; [7]) | Cocklebur plant response rating (cocklebur; [2]) | Cocklebur plant response rating (cocklebur; [10]) | Cocklebur plant response rating (cocklebur; [3]) | Plant response rating, Cocklebur (cocklebur; [4]) | Cocklebur plant response rating (cocklebur; [5]) | Crabgrass plant response rating (crabgrass; [9]) | Crabgrass plant response rating (0 to 10 scale) (crabgrass; Preemergence, Rate 125 g/ha) | Crabgrass plant response rating (crabgrass; [7]) | Crabgrass plant response rating (crabgrass; [2]) | Crabgrass plant response rating (crabgrass; [10]) | Crabgrass plant response rating (crabgrass; [3]) | Plant response rating, Crabgrass (crabgrass; [4]) | Wheat plant response rating (wheat; [9]) | Wheat plant response rating (0 to 10 scale) (wheat; Preemergence, Rate 125 g/ha) | Wheat plant response rating (wheat; [7]) | Wheat plant response rating (wheat; [2]) | Wheat plant response rating (wheat; [10]) | Wheat plant response rating (wheat; [3]) | Plant response rating, Wheat (wheat; [4]) | Wild oats plant response rating (wild oat; [9]) | Wild oats plant response rating (0 to 10 scale) (wild oat; Preemergence, Rate 125 g/ha) | Wild oats plant response rating (wild oat; [7]) | Wild oats plant response rating (wild oat; [2]) | Wild oats plant response rating (wild oat; [10]) | Wild oats plant response rating (wild oat; [3]) | Plant response rating, Wild oats (wild oat; [4])

Cc1cccc(C)c1-n1c(=O)on(C(=O)N(c2ccc(Cl)cc2Cl)C2CCC2)c1=O [Compound 318]
5: Plant response rating, Cocklebur (cocklebur; [4])
0: Cocklebur plant response rating (cocklebur; [11]) | Cocklebur plant response rating (cocklebur; [12]) | Cocklebur plant response rating (cocklebur; [9]) | Cocklebur plant response rating (0 to 10 scale) (cocklebur; Preemergence, Rate 125 g/ha) | Cocklebur plant response rating (cocklebur; [7]) | Cocklebur plant response rating (cocklebur; [10]) | Cocklebur plant response rating (cocklebur; [3]) | Crabgrass plant response rating (crabgrass; [11]) | Crabgrass plant response rating (crabgrass; [12]) | Crabgrass plant response rating (crabgrass; [9]) | Crabgrass plant response rating (0 to 10 scale) (crabgrass; Preemergence, Rate 125 g/ha) | Crabgrass plant response rating (crabgrass; [7]) | Crabgrass plant response rating (crabgrass; [10]) | Crabgrass plant response rating (crabgrass; [3]) | Plant response rating, Crabgrass (crabgrass; [4]) | Wheat plant response rating (wheat; [11]) | Wheat plant response rating (wheat; [9]) | Wheat plant response rating (0 to 10 scale) (wheat; Preemergence, Rate 125 g/ha) | Wheat plant response rating (wheat; [7]) | Wheat plant response rating (wheat; [10]) | Wheat plant response rating (wheat; [3]) | Plant response rating, Wheat (wheat; [4]) | Wild oats plant response rating (wild oat; [11]) | Wild oats plant response rating (wild oat; [9]) | Wild oats plant response rating (0 to 10 scale) (wild oat; Preemergence, Rate 125 g/ha) | Wild oats plant response rating (wild oat; [7]) | Wild oats plant response rating (wild oat; [10]) | Wild oats plant response rating (wild oat; [3]) | Plant response rating, Wild oats (wild oat; [4])
